Reference: article PMC9952374, “De Novo Design of Imidazopyridine-Tethered Pyrazolines That Target Phosphorylation of STAT3 in Human Breast Cancer Cells” (Bioengineering, 2023)

How the values were obtained:
[1] = test system: T47D cells; assay: Alamar Blue cell viability assay, T47D; format: cell-based, human; settings: for IC50: Homo sapiens, T47D cell viability, Alamar Blue
Excerpt: (§1) The goal herein was to assess the ability of imidazopyridine-tethered pyrazolines to inhibit cell viability in mammary carcinoma cells (using the Alamar Blue assay), since pyridine-fused pyrazoles were previously shown to inhibit cell viability in various breast cancer cells. […] The low chemical stability of thio-urea-based compounds may account for the inactivity of most thiourea-conjugated pyrazolines (excluding 4g) against TNBC cells.
(§2) MCF-7 cells were procured from Procell Life Science and Technology Co. LTD, Wuhan, China. Human breast cancer T47D, BT474, and SK-BR-3 cells were obtained from American Type Culture Collection (Washington, DC, NW, USA). Cells (2000) were cultured in MEM or Leibovitz’s L-15 medium enriched with 2% FBS and maintained in a humidified atmosphere of 5% CO2 at 37 °C. A stock solution of DMSO-dissolved compounds was prepared, and this solution was diluted with culture medium as required. MCF-7 Cells (4 × 10^3) were cultured in 96-well plates for 12 h and then treated for 72 h with compounds at concentrations of […]. Using Alamar Blue, the compounds were evaluated for their inhibitory effects

[2] = test system: MCF-7 cells; assay: Alamar Blue cell viability assay, MCF-7; format: cell-based, human; settings: MCF-7 cell viability
Excerpt: as §1, §2
Figure 2 Inhibitory effect of compounds 3f (A), 3e (B), 4g (C), and 3g (D) on the viability of MCF-7 cells. MCF-7 cells were treated with various concentrations of 2-pyrazolines for 72 h and the viability of cells was analyzed by Alamar Blue assays. The results are presented as mean ± S.E.M. of triplicate determinations.

[3] = test system: SK-BR-3 cells; assay: Alamar Blue cell viability assay, SK-BR-3; format: cell-based, human; settings: Homo sapiens, SK-BR-3 cell viability
Excerpt: as §1, §2

[4] = test system: MCF-10A cells; assay: Alamar Blue cell viability assay, normal MCF-10A; format: cell-based; settings: Homo sapiens, normal MCF-10A cell viability
[5] = test system: BT-474 cells; assay: Alamar Blue cell viability assay, BT-474; format: cell-based, human; settings: for IC50: Homo sapiens, BT-474 cell viability, Alamar Blue
Excerpt: as §1, §2

[6] = test system: STAT3 phosphorylation in T47D cells; assay: Western blot of STAT3 phosphorylation, T47D; format: cell-based, human
Procedure: (§3) Therefore, in vitro experiments were performed to evaluate the effect of compound 3f on the phosphorylation of STAT3 in MCF-7 and T47D cells, utilizing our laboratory protocol. For this purpose, Western blot analysis was performed after the treatment of MCF-7 and T47D cells with compound 3f (0, 1, 3, 5 μM) and using p-STAT3 (Tyr705), p-STAT3 (Ser727), and STAT3 antibodies for blotting.
(§4) As previously reported, whole-cell lysates from cells treated with compound 3f were prepared to detect protein expression and phosphorylation using a lysis buffer [Tris (20 mM, pH 7.4), NaCl (250 mM), EDTA (2 mM, pH 8.0), Triton X-100 (0.1%), aprotinin (0.01 mg/mL), leupeptin (0.005 mg/mL), phenylmethane sulfonyl fluoride (0.4 mM), and NaVO4 (4 mM)]. To remove insoluble material, lysates were centrifuged at 13,000 rpm for 15 min.
(§5) Equal protein concentrations of cell lysate were resolved on sodium dodecyl sulfate-polyacrylamide gel electrophoresis, followed by transfer to nitrocellulose membranes as reported previously. Incubation was carried out overnight at 4 °C with antibodies after treatment with 5% skim milk. Afterward, the membranes were washed, probed with HRP-conjugated secondary antibodies for 2 h, and then visualized using chemiluminescence.
(§6) Figure 3 The lead compound 3f decreases the phosphorylation of STAT3 in MCF-7 and T47D cells in a concentration (A) and time-dependent (B) manner. MCF-7 and T47D cells were treated with the indicated concentration of 3f for 4 h. MCF-7 and T47D cells were treated with 5 µM of compound for the indicated time intervals. Thereafter, equal amounts of lysates were analyzed by Western blot analysis using antibodies against p-STAT3(Tyr705), p-STAT3(Ser727), or STAT3. The expression of each protein was quantified. β-ACTIN was used as input control.

[7] = test system: TNBC cells; assay: Effect against TNBC cells; format: cell-based; settings: in words
Excerpt: as §1

[8] = test system: nuclear translocation of STAT3 in MCF-7 cells; assay: Immunocytochemistry of STAT3 nuclear translocation, MCF-7; format: cell-based, human; settings: MCF-7, immunocytochemistry, 10 μM for 4 h (method) / 5 μM (Figure 10 legend)
Procedure: (§7) Finally, we attempted to understand the effect of compound 3f on the blocking of pSTAT3 into nuclear functionally since pSTAT3 dimers could enter the nucleus to give transcription. For this purpose, we conducted an immunocytochemistry assay using MCF-7 and T47D cells. […] We also analyzed the distribution of phospho-STAT3 in the nucleus and cytoplasm using fluorescent-labeled antibodies.
(§8) As described earlier, STAT3 phosphorylation in cells was quantified. After compound 3f treatment (10 μM for 4 h), cells were fixed for 20 min with paraformaldehyde (4%). Thereafter, cells were treated with 0.2% Triton X-100 in phosphate-buffered saline for permeabilization, followed by blocking with 5% bovine serum albumin for 1 h. Then, the preparation was incubated overnight at 4 °C with a rabbit polyclonal anti-human STAT3 antibody (dilution, 1:100). […] The slides were mounted and analyzed under an Olympus FluoView FV1000 confocal microscope (Tokyo, Japan).
(§9) Figure 10 The nuclear localization of STAT3 in MCF-7 (A) and T47D (B) cells was inhibited by compound 3f. MCF-7 and T47D cells were treated with the compound 3f (5 μM), and then analyzed for intracellular distribution by immunocytochemistry. […] The fluorescence intensity of p-STAT3 and STAT3 was performed. […]

[9] = test system: nuclear translocation of STAT3 in T47D cells; assay: Immunocytochemistry of STAT3 nuclear translocation, T47D; format: cell-based, human; settings: 10 μM for 4 h (method) / 5 μM (Figure 10 legend)
Procedure: as §7, §8, §9

[10] = test system: STAT3 phosphorylation in MCF-7 cells; assay: Western blot of STAT3 phosphorylation, MCF-7; format: cell-based, human
Procedure: as §3, §4, §5, §6

[11] = T47D, 5 µM, indicated time intervals
[12] = MCF-7, 5 µM, indicated time intervals

| Structure (SMILES) | IC50 [1] | IC50 ([2]; Homo sapiens, MCF7, 72 h) | IC50 [3] | IC50 [4] | IC50 [5] | melting point | effect against TNBC cells [7] | also measured |
| --- | --- | --- | --- | --- | --- | --- | --- | --- |
| Cc1ccc2nc(C)c(C3=NN(C(=O)CN4CCNCC4)C(c4cccc([N+](=O)[O-])c4)C3)n2c1 (centres unmarked) [Compound 3c, 1-(3-(2,6-Dimethylimidazo[1,2-a]pyridin-3-yl)-5-(3-nitrophenyl)-4,5-dihydro-1H-pyrazol-1-yl)-2-(piperazin-1-yl)ethanone] | 40 ± 1.49 µM | 29.3 ± 1.47 µM | 95.2 ± 1.79 µM | > 100 µM | 26.8 ± 1.37 µM | 176 to 178 °C | – | – |
| CC(=O)N1CCN(CC(=O)N2N=C(c3c(C)nc4ccc(C)cn34)CC2c2cccc([N+](=O)[O-])c2)CC1 (centres unmarked) [Compound 3d, 2-(4-Acetylpiperazin-1-yl)-1-(3-(2,6-dimethylimidazo[1,2-a]pyridin-3-yl)-5-(3-nitrophenyl)-4,5-dihydro-1H-pyrazol-1-yl)ethanone] | > 100 µM | 21 ± 1.32 µM | 32.1 ± 1.46 µM | > 100 µM | 8.04 ± 0.47 µM | 208 to 210 °C | – | – |
| Cc1ccc2nc(C)c(C3=NN(C(=O)CN4CCN(c5ccc(Cl)cc5)CC4)C(c4cccc([N+](=O)[O-])c4)C3)n2c1 (centres unmarked) [Compound 3e, 2-(4-(4-Chlorophenyl)piperazin-1-yl)-1-(3-(2,6-dimethylimidazo[1,2-a]pyridin-3-yl)-5-(3-nitrophenyl)-4,5-dihydro-1H-pyrazol-1-yl)ethanone] | 29.9 ± 1.05 µM | 13.2 ± 1.12 µM | 39.1 ± 1.46 µM | 38.3 ± 1.44 µM | 17.6 ± 0.87 µM | 180 to 182 °C | – | – |
| Cc1ccc2nc(C)c(C3=NN(C(=O)CN4CCN(c5cccc(Cl)c5Cl)CC4)C(c4cccc([N+](=O)[O-])c4)C3)n2c1 (centres unmarked) [Compound 3f, 2-(4-(2,3-Dichlorophenyl)piperazin-1-yl)-1-(3-(2,6-dimethylimidazo[1,2-a]pyridin-3-yl)-5-(3-nitrophenyl)-4,5-dihydro-1H-pyrazol-1-yl)ethanone] | 23.5 ± 1.25 µM | 9.2 µM | > 100 µM | > 100 µM | 13.9 ± 1.32 µM | 122 to 124 °C | significant effect | viability of T47D cells ([1]; in words): inhibited in a dose-dependent manner; phosphorylation level of STAT3 at Ser727, dose dependence ([6]; T47D, 0, 1, 3, 5 μM, 4 h): reduced the phosphorylation level; phosphorylation level of STAT3 at Tyr705, dose dependence ([6]; T47D, 0, 1, 3, 5 μM, 4 h): reduced the phosphorylation level; total STAT3 protein expression ([6]; T47D, 0, 1, 3, 5 μM, 4 h): without affecting the total STAT3 protein expression; phosphorylation of STAT3 at Ser727, time dependence [6, 11]: reduced the phosphorylation; phosphorylation of STAT3 at Tyr705, time dependence [6, 11]: reduced the phosphorylation; IC50 ([2]; 72 h): 9.27 ± 0.97 µM; viability of BT-474 cells ([5]; in words): inhibited in a dose-dependent manner; nuclear translocation of STAT3 [8]: inhibited the nuclear translocation; nuclear translocation of pSTAT3 [8]: block the nuclear translocation; nuclear translocation of STAT3 [9]: inhibited the nuclear translocation; nuclear translocation of pSTAT3 [9]: block the nuclear translocation; phosphorylation level of STAT3 at Ser727, dose dependence ([10]; MCF-7, 0, 1, 3, 5 μM, 4 h): reduced the phosphorylation level; phosphorylation level of STAT3 at Tyr705, dose dependence ([10]; MCF-7, 0, 1, 3, 5 μM, 4 h): reduced the phosphorylation level; total STAT3 protein expression ([10]; MCF-7, 0, 1, 3, 5 μM, 4 h): without affecting the total STAT3 protein expression; phosphorylation of STAT3 at Ser727, time dependence [10, 12]: reduced the phosphorylation; phosphorylation of STAT3 at Tyr705, time dependence [10, 12]: reduced the phosphorylation |
| Cc1ccc2nc(C)c(C3=NN(C(=O)CN4CCN(c5ccc(Cl)cc5F)CC4)C(c4cccc([N+](=O)[O-])c4)C3)n2c1 (centres unmarked) [Compound 3g, 2-(4-(4-Chloro-2-fluorophenyl)piperazin-1-yl)-1-(3-(2,6-dimethylimidazo[1,2-a]pyridin-3-yl)-5-(3-nitrophenyl)-4,5-dihydro-1H-pyrazol-1-yl)ethanone] | 86.5 ± 1.95 µM | 19.4 ± 1.29 µM | 100 ± 1.98 µM | 8.69 ± 0.69 µM | 63.2 ± 1.75 µM | 196 to 198 °C | – | – |
| Cc1ccc2nc(C)c(C3=NN(C(=O)CN4CCN(c5ccc(F)c(F)c5)CC4)C(c4cccc([N+](=O)[O-])c4)C3)n2c1 (centres unmarked) [Compound 3h, 2-(4-(3,4-Difluorophenyl)piperazin-1-yl)-1-(3-(2,6-dimethylimidazo[1,2-a]pyridin-3-yl)-5-(3-nitrophenyl)-4,5-dihydro-1H-pyrazol-1-yl)ethanone] | 12.5 ± 1.01 µM | 19.6 ± 1.29 µM | 38.8 ± 1.42 µM | 6.27 ± 0.26 µM | 3.06 ± 0.32 µM | 192 to 194 °C | significant effect | – |
| Cc1ccc2nc(C)c(C3=NN(C(=O)CN4CCN(c5ccccc5F)CC4)C(c4cccc([N+](=O)[O-])c4)C3)n2c1 (centres unmarked) [Compound 3i, 1-(3-(2,6-Dimethylimidazo[1,2-a]pyridin-3-yl)-5-(3-nitrophenyl)-4,5-dihydro-1H-pyrazol-1-yl)-2-(4-(2-fluorophenyl)piperazin-1-yl)ethanone] | > 100 µM | 63.7 ± 1.8 µM | > 100 µM | > 100 µM | > 100 µM | 160 to 162 °C | – | – |
| Cc1ccc2nc(C)c(C3=NN(C(=S)Nc4ccc([N+](=O)[O-])cc4)C(c4cccc([N+](=O)[O-])c4)C3)n2c1 (centres unmarked) [Compound 4b, 3-(2,6-Dimethylimidazo[1,2-a]pyridin-3-yl)-5-(3-nitrophenyl)-N-(4-nitrophenyl)-4,5-dihydro-1H-pyrazole-1-carbothioamide] | 45.6 ± 1.43 µM | 65.4 ± 1.82 µM | 69 ± 1.41 µM | > 100 µM | 7.26 ± 0.54 µM | 230 to 232 °C | significant effect | – |
| Cc1ccc2nc(C)c(C3=NN(C(=S)Nc4cc(C(F)(F)F)cc(C(F)(F)F)c4)[C@@H](c4cccc([N+](=O)[O-])c4)C3)n2c1 [Compound 4g, N-(3,5-Bis(trifluoromethyl)phenyl)-3-(2,6-dimethylimidazo[1,2-a]pyridin-3-yl)-5-(3-nitrophenyl)-4,5-dihydro-1H-pyrazoline-1-carbothioamide] | > 100 µM | 10.9 ± 1.01 µM | > 100 µM | > 100 µM | > 100 µM | 230 to 232 °C | – | – |
